Experimental findings from patent publication US20190000829A1, “THERAPEUTIC AGENT FOR BILIARY TRACT CANCER” (Eisai R&D Management Co., Ltd., priority 2015, published 2019) are described below.

In assay [1] the test system is human cholangiocarcinoma cell line (OZ cell line). The assay is described as follows: Tumor growth-inhibitory effect in model subcutaneously transplanted with human cholangiocarcinoma cell line (OZ). It counts as in vivo. The settings on record: OZ subcutaneous xenograft, nude mice; mesylate of compound A 1, 3, 10, 30, 100 mg/kg orally once a day for 14 days. Here is the method: An antitumor effect produced by administration of compound A was evaluated with five nude mice in each group (CAnN.Cg-Foxn1^nu/CrlCrlj, female, Charles River Laboratories Japan, Inc.). The human-derived cholangiocarcinoma OZ cell lines (JCRB Cell Bank) were suspended in Williams'E (Sigma-Aldrich Corporation, supplemented with 2 mmol/L L-glutamine and 10% FBS) at a concentration of 2×10^8 cells/mL and were mixed well. The cell suspension was further mixed with an equal amount of Matrigel basement membrane matrix (Corning Incorporated) to prepare a cell suspension at 1×10^8 cells/mL, and aliquots of 0.1 mL were subcutaneously transplanted into the right flank of each mouse. Thirteen days after transplantation, the longest diameter and the short axis of the tumors were measured by an electronic digital caliper (ABS Digimatic Caliper, Mitutoyo Corporation). The mice were divided into groups so that the average of tumor volumes of each group became approximately equal. In this regard, the tumor volume was calculated according to the following formula.
(§1) Tumor volume (mm^3)=longest diameter (mm)×short axis (mm)×short axis (mm)/2 […]
The tumor volume was measured on the day when the administration was started (Day 1), Day 5, Day 8, and Day 12, and the clay following the last day of administration (Day 15). […]

Assay [2] relates to unresectable biliary tract cancer. The assay is described as follows: Multicenter, unblinded, phase II clinical trial in patients with unresectable biliary tract cancer after combination chemotherapy involving gemcitabine (interim analysis). It counts as in vivo, human. An excerpt:
This clinical trial was a multicenter, single-group, unblinded clinical trial for patients with a prior treatment history who had received one regimen using two-drug combination chemotherapy involving gemcitabine (two-drug combination chemotherapy using gemcitabine and cisplatin, or gemcitabine and another platinum-based drug or a fluorinated pyrimidine drug) for their unresectable biliary tract cancers.
This clinical trial was composed of three periods, which were a pretreatment period, an administration period, and a follow-up period. During the pretreatment period, screening was performed within 21 days. The administration period was composed of administration of mesylate of compound A as an investigational drug in each cycle and tumor assessment performed every 6 to 8 weeks. The follow-up period was started immediately after the day when administration was discontinued and was continued while the subject was alive until withdrawal of consent by the subject or completion of the clinical trial.
The investigational drug, mesylate of compound A, was administered orally once a day in a cycle of 28 days at a dose of 24 mg in terms of compound A in free form, and administration was continued until disease progression, an unacceptable adverse event, withdrawal of consent by the subject, or the like occurred.
The primary objective of the clinical trial was to determine an objective response rate (ORR) of the investigational drug for patients with an unresectable biliary tract cancer after combination chemotherapy involving gemcitabine.
The secondary objective of the clinical trial was to determine a progression-free survival (PFS), an overall survival (OS), a disease control rate (DCR), a clinical benefit rate (CBR), adverse events (AEs), and the number of subjects who developed serious adverse events (SAEs), and a blood concentration. In this context, ORR is defined as a rate of subjects with their best overall response (BOR) being complete response (CR) or partial response (PR). […]

Assay [3] relates to human extrahepatic cholangiocarcinoma cell line (TFK-1 cell line). The assay is described as follows: Tumor growth-inhibitory effect in model subcutaneously transplanted with human extrahepatic cholangiocarcinoma cell line (TFK-1). Type of assay: in vivo. To be noted: TFK-1 subcutaneous xenograft, nude mice; mesylate of compound A 1, 3, 10, 30, 100 mg/kg orally once a day for 14 days. Here is the method:
An antitumor effect produced by administration of compound A was evaluated with six nude mice in each group (CAnN.Cg-Foxn1^nu/CrlCrlj, female, Charles River Laboratories Japan, Inc.). The human-derived extrahepatic cholangiocarcinoma TFK-1 cell lines (Riken BioResource Center) were suspended in RPMI1640 medium (Wako Pure Chemical Industries, Ltd., supplemented with 10% FBS) at a concentration of 2×10^8 cells/mL and were mixed well. The cell suspension was further mixed with an equal amount of Matrigel basement membrane matrix (Corning Incorporated) to prepare a cell suspension at 1×10^8 cells/mL, and aliquots of 0.1 mL were subcutaneously transplanted into the right flank of each mouse. Seven days after transplantation, the longest diameter and the short axis of the tumors were measured by an electronic digital caliper (ABS Digimatic Caliper, Mitutoyo Corporation). The mice were divided into groups so that the average of tumor volumes of each group became approximately equal. In this regard, the tumor volume was calculated according to the following formula.
as §1
(§2) The tumor volume was measured on the day when the administration was started (Day 1), Day 4, Day 8, and Day 11, and the day following the last day of administration (Day 15). […]

Assay [4] has as its system human carcinoma of the ampulla of Vater cell line (SNU-869 cell line). The assay is described as follows: Tumor growth-inhibitory effect in model subcutaneously transplanted with human carcinoma of the ampulla of Vater cell line (SNU-869). The settings on record: SNU-869 subcutaneous xenograft, nude mice; mesylate of compound A 1, 3, 10, 30, 100 mg/kg orally once a day for 14 days. Type of assay: in vivo. How it is done:
An antitumor effect produced by administration of compound A was evaluated with six nude mice in each group (CAnN.Cg-Foxn1^nu/CrlCrlj, female, Charles River Laboratories Japan, Inc.). The human-derived human carcinoma of the ampulla of Vater SNU-869 cell lines (Creative Bioarray) were suspended in RPMI1640 medium (Wako Pure Chemical Industries, Ltd., supplemented with 25 mM HEPES and 10% FBS) at a concentration of 2×10^8 cells/mL and were mixed well. The cell suspension was further mixed with an equal amount of Matrigel basement membrane matrix (Corning Incorporated) to prepare a cell suspension at 1×10^8 cells/mL, and aliquots of 0.1 mL were subcutaneously transplanted into the right flank of each mouse. Seven days after transplantation, the longest diameter and the short axis of the tumors were measured by an electronic digital caliper (ABS Digimatic Caliper, Mitutoyo Corporation). The mice were divided into groups so that the average of tumor volumes of each group became approximately equal. In this regard, the tumor volume was calculated according to the following formula.
as §1, §2

Turning to `COc1cc2nccc(Oc3ccc(NC(=O)NC4CC4)c(Cl)c3)c2cc1C(N)=O` [compound A, 4-[3-chloro-4-(cyclopropylaminocarbonyl)aminophenoxy]-7-methoxy-6-quinolinecarboxamide], the “antitumor effect (tumor volume on Day 15 vs control)” value in assay [1], in assay [3] and in assay [4] was “dose-dependent antitumor effect” each time. Besides, the “stable disease (SD, 6 weeks or more), percentage of patients” value in assay [2] (17 patients, mesylate of compound A orally once a day, 24 mg in terms of free form, 28-day cycles, 13 patients) turned out to be 76.5%. Besides, in assay [2] (17 patients, mesylate of compound A orally once a day, 24 mg in terms of free form, 28-day cycles, one patient), the “partial response (PR), percentage of patients” value stood at 5.9%. Also, the “tendency for tumor regression, number of patients” value in assay [2] (among 13 SD patients, 24 mg orally once a day) is given as 8 patients.
